# Assay results published in patent US7626082B2, “Flowering induction” (Agriculture Victoria Services Pty Ltd., priority 2003, dated 2009).
# Experiments:
# Assay type in all cases: in vivo
# [1] = tested on: transgenic arabidopsis plants carrying both the pHTOP-FT construct and the LhG4-GR construct; test: Transgenic arabidopsis grown in the presence of DEX: flowering and GUS staining
# Method: (A) A plant grown on a 30 μM MS-DEX plate; (B) No DEX control; (C) and (D) GUS staining of leaves from induced plants; (E) GUS staining of a leaf from a non-induced LhGr/pHtop-FT plant; GUS staining of a leaf from a Col wild type plant.
# The arabidopsis FT cDNA was inserted into the pHTOP vector system to facilitate inducible expression of the gene using heterologous transcription factor system LhG4^19,27.
# This inducible system allows for simultaneous expression of two genes from the same reporter construct. In the experiment described here the GUS gene was used as a second gene in addition to FT.
# FT gene = FT gene induction levels in sprayed transgenic arabidopsis plants (real-time RT-PCR); details: for fold gene induction: short day conditions
# Method: Total RNA was converted to cDNA using standard protocols using 1-5 ug of RNA as measured by OD260.
# Quantitative RT-PCR was performed in the BioRad iCycler instrument using standard protocols and SyberGreen as reporting dye
# Actin gene levels were assayed using oligonucleotides GTF037 (Seq ID. No. 28) 5′[…]3′ and GTF038 (Seq ID No. 29) 5′[…]3′, and served as standards to normalize measurements of other genes.
# To create a copy number calibration curve for individual genes, standards were made up from corresponding PCR products, measuring their concentration using gel serial dilution methods and spectrophotometry. Standard copy numbers were varied from 1 to 10^8 with 10× increments.
# Amplifications were performed in triplicates, error rates were estimated by adding the average variance between triplicate samples, and average error of the standard curve fit of the standards of both the gene of interest and of the actin standard.
# We have also measured the FT gene induction levels in the sprayed transgenic arabidopsis plants compared with the non-sprayed or non-transgenic controls in plants grown in short day conditions, the results are summarized in the table below:
# The methodology we used to measure the gene induction levels was essentially the same as described elsewhere in the patent, except that we used the arabidopsis gene-specific primers NIK13 5′[…]3′ (SEQ ID NO: 34) and NIK14 5′[…]3′ (SEQ ID NO: 35).
# [2] = tested on: Arabidopsis plants containing the pHTOP::FT inducible construct; test: Time to flowering of arabidopsis plants sprayed with DEX inducer; design: time to flowering: unit not given here
smiles,measurement,setting,value
"C[C@@H]1C[C@H]2[C@@H]3CCC4=CC(=O)C=C[C@]4(C)[C@@]3(F)[C@@H](O)C[C@]2(C)[C@@]1(O)C(=O)CO [DEX, dexmethasone]",flowering,"[1]; pHTOP-FT + LhG4-GR plants grown in the presence of DEX (30 μM MS-DEX plate, FIG. 5)",accelerated flowering
same,GUS staining (reporter gene activity),[1]; pHTOP-FT + LhG4-GR plants grown in the presence of DEX (FIG. 5),GUS staining
same,induction in the cDNA level as assayed in real-time RT-PCR,FT gene; 1 mM spray of inducer,lesser induction
same,fold gene induction,"FT gene; LhG4-mGR driver plants, sprayed twice 30 μM",1x
same,fold gene induction,"FT gene; pHTOP::FT plants, sprayed twice 30 nM",1x
same,fold gene induction,"FT gene; pHTOP::FT plants, sprayed twice 1 μM",20x
same,fold gene induction,"FT gene; pHTOP::FT plants, sprayed twice 30 μM",120x
same,induction in the cDNA level as assayed in real-time RT-PCR,FT gene; plants 3 days after treatment with high level of the DEX inducer,> 100 fold
same,fold gene induction,"FT gene; wild type plants, sprayed twice 30 μM",1x
same,time to flowering,"[2]; LhG4-mGR driver, line S7, sprayed twice 30 μM, unit not in table (b146 speaks of days)",20
same,emergence of inflorescences,"[2]; pHTOP::FT plants sprayed with 30 mM DEX, 6 days after spraying (FIG. 12)",inflorescences have emerged
same,time to flowering,"[2]; pHTOP::FT, line COF3-12, sprayed twice 30 nM",20
same,time to flowering,"[2]; pHTOP::FT, line COF3-12, sprayed twice 1 μM",20
same,time to flowering,"[2]; pHTOP::FT, line COF3-12, sprayed twice 30 μM",16.5
same,time to flowering,"[2]; pHTOP::FT, line COF7-30, sprayed twice 30 nM",20
same,time to flowering,"[2]; pHTOP::FT, line COF7-30, sprayed twice 1 μM",19
same,time to flowering,"[2]; pHTOP::FT, line COF7-30, sprayed twice 30 μM",14.86
same,reduction of time to flowering,"[2]; spraying with 30 mM inducer, compared to non-transgenic or non-sprayed plants",up to 6 days
same,time to flowering,"[2]; wild type, line Col, sprayed twice 30 μM",20
